Patent US11078201B2, “Substituted isoindolin-1-ones and 2,3-dihydro-1H-pyrrol[3,4-c]pyridin-1-ones as HPK1 antagonists” (Nimbus Saturn, Inc., priority 2019, dated 2021)

Biological target: HPK1 (Homo sapiens (Human), UniProt Q92918)
Assay: HPK1 biochemical enzyme assay (microfluidic mobility shift assay)
Details: 1.5 nM HPK1, ATP 1 mM final, 60 min at RT, Caliper EZ Reader; read-out: HPK1 1000UMATP caliper IC50
Protocol: HPK1 biochemical enzyme assay: HPK1 enzyme inhibition was measured using a microfluidic mobility shift assay. […] Test compounds were titrated in ten point curves (top final assay concentration […]), and preincubated with enzyme/substrate mix for 30 min prior to initiation of the reaction by addition of ATP (1 mM final concentration) and substrate (1 μM final concentration; Carna Biosciences) diluted in assay buffer supplemented by MgCl2 (final assay concentration of 5 mM). Following 60 min incubation at RT, the reaction was terminated by addition of 60 µl/well termination buffer (Carna Biosciences) and signal determination using a Caliper EZ Reader (Perkin Elmer, UK).
The compound numbers correspond to the compound numbers in Table 1.

Sequence of HPK1 (Q92918 whole entry): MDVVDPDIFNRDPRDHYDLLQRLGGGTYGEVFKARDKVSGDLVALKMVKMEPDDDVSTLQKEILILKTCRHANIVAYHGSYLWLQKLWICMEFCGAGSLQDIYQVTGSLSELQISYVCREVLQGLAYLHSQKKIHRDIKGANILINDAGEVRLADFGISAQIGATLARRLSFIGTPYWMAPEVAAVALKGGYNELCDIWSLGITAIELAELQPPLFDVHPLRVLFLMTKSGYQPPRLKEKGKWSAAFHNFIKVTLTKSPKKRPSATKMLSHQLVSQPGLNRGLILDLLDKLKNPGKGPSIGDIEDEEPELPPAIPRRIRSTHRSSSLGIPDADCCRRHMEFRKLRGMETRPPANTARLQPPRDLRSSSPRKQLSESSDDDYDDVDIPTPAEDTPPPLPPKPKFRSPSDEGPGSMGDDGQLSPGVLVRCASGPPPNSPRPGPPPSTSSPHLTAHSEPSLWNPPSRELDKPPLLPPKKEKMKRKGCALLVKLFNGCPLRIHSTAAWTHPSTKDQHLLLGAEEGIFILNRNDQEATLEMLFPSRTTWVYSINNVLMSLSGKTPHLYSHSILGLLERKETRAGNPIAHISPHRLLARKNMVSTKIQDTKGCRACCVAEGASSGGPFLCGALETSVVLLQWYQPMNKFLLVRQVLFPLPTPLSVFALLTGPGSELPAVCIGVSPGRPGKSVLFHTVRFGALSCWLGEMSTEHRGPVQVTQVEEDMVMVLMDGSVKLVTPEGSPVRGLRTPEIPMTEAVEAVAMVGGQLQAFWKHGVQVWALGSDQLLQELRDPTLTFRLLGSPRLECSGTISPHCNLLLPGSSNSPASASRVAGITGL

Row | Substance | IC50 [nM]
1 | 4-(8-fluoro-7- methyl-imidazo[1,2- a]pyridin-3- yl)-7-[[5- (morpholino- methyl)-2- pyridyl]amino] isoindolin-1-one [I-468] | < 100
2 | 4-[7-(hydroxymeth- yl)imidazo[1,2- a]pyridin-3- yl]-7-[(5- morpholino-2- pyridyl)amino] isoindolin-1-one [I-196] | < 100
